Data taken from ChEMBL document CHEMBL4433238, “2,4,5-Tris(alkoxyaryl)imidazoline derivatives as potent scaffold for novel p53-MDM2 interaction inhibitors: Design, synthesis, and biological evaluation” (Bioorg Med Chem Lett, 2019).
Each block holds one compound with its values, some of them ahead of it. Activity calls are given as the source filed them. No cut-off for these calls is given here.

Columns and labels:
[1] = test system: A549; experiment: Cytotoxicity against human A549 cells assessed as reduction in cell viability after 72 hrs by MTT assay; format: functional, cell-based; settings: A549, 72 h
[2] = biological target: Tumour suppressor p53/oncoprotein Mdm2 (Homo sapiens) (UniProt P04637+Q00987); experiment: Inhibition of MDM2/P53 interaction in human A549 cells assessed as increase in p53 level at 10 to 20 uM after 24 hrs by Western blot analysis; format: cell-based
[3] = test system: A549; experiment: Cytotoxicity against human A549 cells at 1.56 to 100 uM after 72 hrs by MTT assay; format: functional, cell-based
[4] = test system: A549; experiment: Induction of apoptosis in human A549 cells assessed as necrotic cells up to 80 uM incubated for 24 hrs by Annexin V-FITC/propidium iodide staining based flow cytometry; format: functional, cell-based
[5] = test system: A549; experiment: Induction of necrosis in human A549 cells at >20 uM after 24 hrs by Annexin V-FITC/propidium iodide staining based flow cytometry; format: functional, cell-based
[6] = test system: A549; experiment: Induction of apoptosis in human A549 cells assessed as caspase-3 p17/19 active fragment generation at 40 uM after 24 hrs by Western blot analysis; format: functional, cell-based
[7] = test system: A549; experiment: Induction of apoptosis in human A549 cells assessed as increase in necrotic cells at 40 to 80 uM incubated for 24 hrs by Annexin V-FITC/propidium iodide staining based flow cytometry relative to control; format: functional
[8] = test system: A549; experiment: Induction of apoptosis in human A549 cells assessed as cell death at 80 uM after 24 hrs by Annexin V-FITC/propidium iodide staining based flow cytometry; format: functional
[9] = test system: A549; experiment: Induction of apoptosis in human A549 cells assessed as increase in PARP cleavage at 40 uM after 24 hrs by Western blot analysis; format: functional, cell-based
[10] = Solubility of compound in water; format: physicochemical; settings: buffer
[11] = test system: A549; experiment: Induction of apoptosis in human A549 cells assessed as cell death up to 40 uM after 24 hrs by Annexin V-FITC/propidium iodide staining based flow cytometry; format: functional
[12] = test system: A549; experiment: Induction of apoptosis in human A549 cells assessed as increase in PARP cleavage at 80 uM after 24 hrs by Western blot analysis; format: functional, cell-based
[13] = test system: A549; experiment: Induction of apoptosis in human A549 cells assessed as increase in apoptotic cells at 80 uM incubated for 24 hrs by Annexin V-FITC/propidium iodide staining based flow cytometry; format: functional, cell-based
[14] = test system: A549; experiment: Induction of apoptosis in human A549 cells assessed as increase in apoptotic cells up to 40 uM incubated for 24 hrs by Annexin V-FITC/propidium iodide staining based flow cytometry; format: functional, cell-based
[15] = test system: A549; experiment: Induction of apoptosis in human A549 cells assessed as caspase-3 p17/19 active fragment generation at 80 uM after 24 hrs by Western blot analysis; format: functional, cell-based

Chain of Tumour suppressor p53/oncoprotein Mdm2 (Homo sapiens) (P04637 whole entry, looked up): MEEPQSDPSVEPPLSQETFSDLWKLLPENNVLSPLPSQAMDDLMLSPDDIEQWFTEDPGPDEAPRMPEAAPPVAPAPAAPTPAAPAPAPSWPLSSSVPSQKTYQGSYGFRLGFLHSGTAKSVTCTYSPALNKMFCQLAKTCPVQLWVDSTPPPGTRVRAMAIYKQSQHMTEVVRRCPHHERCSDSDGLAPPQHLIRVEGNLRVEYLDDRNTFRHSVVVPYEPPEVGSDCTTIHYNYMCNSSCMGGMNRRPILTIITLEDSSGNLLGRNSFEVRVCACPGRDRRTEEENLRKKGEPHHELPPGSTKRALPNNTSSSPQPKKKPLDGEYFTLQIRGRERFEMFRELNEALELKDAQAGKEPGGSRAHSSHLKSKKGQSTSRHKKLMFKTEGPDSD
Chain of Tumour suppressor p53/oncoprotein Mdm2 (Homo sapiens) (Q00987 whole entry, looked up): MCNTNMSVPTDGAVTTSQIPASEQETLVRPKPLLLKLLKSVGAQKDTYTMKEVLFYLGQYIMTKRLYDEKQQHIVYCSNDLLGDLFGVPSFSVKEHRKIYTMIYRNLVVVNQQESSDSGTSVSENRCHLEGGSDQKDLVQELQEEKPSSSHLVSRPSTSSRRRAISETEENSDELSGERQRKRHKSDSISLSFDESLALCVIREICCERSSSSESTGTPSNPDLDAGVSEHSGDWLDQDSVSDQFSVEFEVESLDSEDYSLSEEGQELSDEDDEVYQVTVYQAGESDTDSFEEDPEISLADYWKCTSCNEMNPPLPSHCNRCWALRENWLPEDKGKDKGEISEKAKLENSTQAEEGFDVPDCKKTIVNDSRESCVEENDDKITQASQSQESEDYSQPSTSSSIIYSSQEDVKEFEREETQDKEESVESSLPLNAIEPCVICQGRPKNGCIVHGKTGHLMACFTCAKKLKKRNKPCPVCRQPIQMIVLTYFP

Compound: COc1ccc(C2=N[C@H](c3ccc(OC)c(OC)c3)[C@H](c3ccc(OC)c(OC)c3)N2)cc1OC
- IC50 [1]: 84.7 µM

Compound: CCOc1ccc(C2=N[C@H](c3ccc(OCC)c(OC)c3)[C@H](c3ccc(OCC)c(OC)c3)N2)cc1OC
- IC50 [1]: 67.5 µM

Compound: Fc1ccc(C2=N[C@H](c3ccc(F)cc3)[C@H](c3ccc(F)cc3)N2)cc1
- IC50 [1]: 108 µM

- inhibition [2]: inactive
Compound: COc1cccc(C2=N[C@H](c3cccc(OC)c3OC)[C@H](c3cccc(OC)c3OC)N2)c1OC
- IC50 [1]: 16.2 µM

Compound: COc1cc(C2=N[C@H](c3cc(OC)c(OC)c(OC)c3)[C@H](c3cc(OC)c(OC)c(OC)c3)N2)cc(OC)c1OC
- Activity [3]: inactive

Compound: Clc1ccc(C2=N[C@H](c3ccc(Cl)cc3)[C@H](c3ccc(Cl)cc3)N2)cc1
- Activity [4]: Active
- IC50 [1]: 20.2 µM
- Activity [5]: Active
- Activity [6]: Active
- Activity [7]: <=70%
- Activity [8]: Active
- Activity [9]: Active

Compound: Clc1ccc(C2=N[C@H](c3ccc(Cl)cc3Cl)[C@H](c3ccc(Cl)cc3Cl)N2)c(Cl)c1
- IC50 [1]: 164 µM

Compound: COc1ccccc1C1=N[C@H](c2ccccc2OC)[C@H](c2ccccc2OC)N1
- IC50 [1]: 27.4 µM

Compound: Oc1ccccc1C1=N[C@H](c2ccccc2O)[C@H](c2ccccc2O)N1
- IC50 [1]: 311 µM

- solubility [10]: Insoluble
Compound: Brc1ccc(C2=N[C@H](c3ccc(Br)cc3)[C@H](c3ccc(Br)cc3)N2)cc1
- IC50 [1]: 9.05 µM

- solubility [10]: Insoluble
Compound: Clc1ccccc1C1=N[C@H](c2ccccc2Cl)[C@H](c2ccccc2Cl)N1
- IC50 [1]: 10.7 µM

Compound: Oc1ccc(O)c(C2=N[C@H](c3cc(O)ccc3O)[C@H](c3cc(O)ccc3O)N2)c1
- Activity [3]: inactive

- inhibition [2]: inactive
Compound: COc1ccc(OC)c(C2=N[C@H](c3cc(OC)ccc3OC)[C@H](c3cc(OC)ccc3OC)N2)c1
- IC50 [1]: 21.4 µM

Compound: COc1cccc(C2=N[C@H](c3cccc(OC)c3)[C@H](c3cccc(OC)c3)N2)c1
- IC50 [1]: 64.3 µM

Compound: COc1ccc(C2=N[C@H](c3ccc(OC)cc3OC)[C@H](c3ccc(OC)cc3OC)N2)c(OC)c1
- Activity [4]: inactive
- IC50 [1]: 9.32 µM
- Activity [11]: inactive
- Activity [12]: inactive
- Activity [13]: Active
- Activity [14]: inactive
- Activity [15]: inactive

Compound: CCOc1ccc(C2=N[C@H](c3ccc(OCC)cc3)[C@H](c3ccc(OCC)cc3)N2)cc1
- Activity [4]: Active
- IC50 [1]: 13.3 µM
- Activity [5]: Active
- Activity [6]: Active
- Activity [7]: <=70%
- Activity [8]: Active
- Activity [9]: Active

Compound: Oc1ccc(C2=N[C@H](c3ccc(O)cc3)[C@H](c3ccc(O)cc3)N2)cc1
- Activity [3]: inactive

Compound: Clc1ccc(C2=N[C@H](c3ccc(Cl)c(Cl)c3)[C@H](c3ccc(Cl)c(Cl)c3)N2)cc1Cl
- IC50 [1]: 13.7 µM

Compound: COc1ccc(C2=N[C@H](c3ccc(OC)cc3)[C@H](c3ccc(OC)cc3)N2)cc1
- Activity [4]: inactive
- IC50 [1]: 43.9 µM
- Activity [11]: inactive
- Activity [12]: inactive
- Activity [13]: Active
- Activity [14]: inactive
- Activity [15]: inactive

Compound: CCOc1c(OC)cccc1C1=N[C@H](c2cccc(OC)c2OCC)[C@H](c2cccc(OC)c2OCC)N1
- IC50 [1]: 24.3 µM

Compound: COc1ccc(C2=N[C@H](c3ccc(O)cc3)[C@H](c3ccc(O)cc3)N2)cc1
- Activity [3]: inactive
